Test results from US6093805A, “Glycoside compounds and methods of synthesis” (The Regents of the University of Michigan, priority 1997, dated 2000).
In brackets after ≈: the same amount, converted by molar mass. Where a name gives a salt, the structure may show the parent alone. One block for each compound: values may come before it.

Columns and labels:
[1] = test system: cancer diseases of several phenotypes; conditions: cited from earlier work
[2] = test system: K-562; experiment: Tumor cell growth inhibition in K-562 cell culture (FIG. 8); assay type: cell-based; conditions: K-562 culture fluid; 1/10 (0.4 mg/mL), 1/80 (0.03 mg/mL), 1/320 (0.007 mg/mL); plot FIG. 8
[3] = test system: cancer cells of representative phenotypes; conditions: cited from earlier work
[4] = Solubility in 14 mM phosphate buffered saline pH 7.4 at 23° C.; assay type: physicochemical; conditions: aqueous buffer, 14 mM PBS pH 7.4, OD at 250 nm of supernatant, read-out: maximum solubility
Description: The solubility of the two acetaminophen derivatives (Examples 9 and 10) in 14 mM phosphate buffered saline (PBS) pH 7.4 was determined and compared with the solubility of non-derivatized acetaminophen. It was determined that the two acetaminophen derivatives had much greater solubility than that of the non-derivatized acetaminophen. All work was performed at 23° C.
Method: The solubility of both derivatives was determined by continual addition, with agitation, of the derivatives to a known amount of buffer. When a significant precipitate was observed, the respective solutions were centrifuged and the optical density at 250 nm of the resulting clear supernatant was determined. From the optical density of the supernatant, the concentration was obtained by comparison with non-derivatized acetaminophen standard curves.

[5] = test system: cancer cells; conditions: cited from earlier work
[6] = in vivo; cited from earlier work

SMILES: CC(C)CCC[C@@H](C)[C@H]1CC[C@H]2[C@@H]3[C@@H](O)C=C4C[C@@H](O)CC[C@]4(C)[C@H]3CC[C@]12C [7β-hydroxycholesterol, 5-cholestene-3β,7β-diol]
side effects in treatment of cancer diseases ([1]; in vivo): free of side effects
treatment of cancer diseases ([1]; several phenotypes): successfully employed
tumor cell growth inhibition [2]: tumor cell growth inhibition
effect on healthy cells [3]: not affecting healthy cells
elimination of cancer cells ([3]; substantially non-toxic dosage): effective at substantially non-toxic dosage and capable of eliminating cancer cells of representative phenotypes

SMILES: CC(C)CCC[C@@H](C)[C@H]1CC[C@H]2[C@@H]3[C@@H](OC(=O)CCC(=O)O)C=C4C[C@@H](OC(=O)CCC(=O)O)CC[C@]4(C)[C@H]3CC[C@]12C [7β-OHC bishemisuccinate colamine salt]
inhibition of proliferative phase growth of cancer cells ([5]; clinical studies, low parenteral dosage): selectively inhibit the proliferative phase growth of cancer cells
side effects ([5]; in vivo): without substantial side effects
normalizing effects [6]: drive-enhancing (stimulating) activity as well as a tranquilizing activity

Other lines, results leading:

solubility [4]: 60 mg/mL (≈ 136 mM)
SMILES: CC(=O)Nc1ccc(O[C@@H]2C=C[C@H](O[C@H]3O[C@H](CO)[C@@H](O)[C@H](O)[C@H]3O)[C@@H](CO)O2)cc1 [Example 9, p-Acetoamidophenyl 4-O-(α-D-glucopyranosyl)-2,3-dideoxy-α-D-erythro-hex-2-enopyranoside]

solubility [4]: 7 mg/mL (≈ 46.3 mM)
SMILES: CC(=O)Nc1ccc(O)cc1 [acetaminophen, 4-acetamidophenol]

solubility [4]: 55 mg/mL (≈ 125 mM)
SMILES: CC(=O)Nc1ccc(O[C@@H]2C=C[C@H](O[C@@H]3O[C@H](CO)[C@H](O)[C@H](O)[C@H]3O)[C@@H](CO)O2)cc1 [Example 10, p-Acetoamidophenyl 4-O-(β-D-galactopyranosyl)-2,3-dideoxy-O-D-erythro-hex-2-enopyranoside]
